ChEMBL document CHEMBL1136971, “Nascent structure-activity relationship study of a diastereomeric series of kappa opioid receptor antagonists derived from CJ-15,208” (Bioorg Med Chem Lett, 2009)
pEC50, pIC50, pKi: −log10 of the molar value. Square brackets hold non-standard residues; d marks the D form. Peptide text beside a SMILES is read from it.

Experiments:
[1] = target: T1, Kappa-type opioid receptor (Homo sapiens, UniProt P41145); assay: Displacement of [3H]diprenorphine from human cloned kappa opioid receptor by cell based assay
T1 sequence (P41145 whole entry): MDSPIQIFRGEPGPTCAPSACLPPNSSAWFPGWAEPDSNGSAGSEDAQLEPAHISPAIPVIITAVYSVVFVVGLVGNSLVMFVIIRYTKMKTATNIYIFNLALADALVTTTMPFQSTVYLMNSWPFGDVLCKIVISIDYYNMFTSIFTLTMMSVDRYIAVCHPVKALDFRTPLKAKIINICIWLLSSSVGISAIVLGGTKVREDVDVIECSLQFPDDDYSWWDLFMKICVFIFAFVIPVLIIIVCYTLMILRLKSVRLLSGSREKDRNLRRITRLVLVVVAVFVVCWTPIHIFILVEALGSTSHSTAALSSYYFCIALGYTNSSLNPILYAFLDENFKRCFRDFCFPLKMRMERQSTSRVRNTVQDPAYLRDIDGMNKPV

Mu-type opioid receptor [2] = target: T2, Mu-type opioid receptor (Homo sapiens, UniProt P35372); assay: Displacement of [3H]diprenorphine from human cloned mu receptor by cell based assay
T2 sequence (P35372 whole entry): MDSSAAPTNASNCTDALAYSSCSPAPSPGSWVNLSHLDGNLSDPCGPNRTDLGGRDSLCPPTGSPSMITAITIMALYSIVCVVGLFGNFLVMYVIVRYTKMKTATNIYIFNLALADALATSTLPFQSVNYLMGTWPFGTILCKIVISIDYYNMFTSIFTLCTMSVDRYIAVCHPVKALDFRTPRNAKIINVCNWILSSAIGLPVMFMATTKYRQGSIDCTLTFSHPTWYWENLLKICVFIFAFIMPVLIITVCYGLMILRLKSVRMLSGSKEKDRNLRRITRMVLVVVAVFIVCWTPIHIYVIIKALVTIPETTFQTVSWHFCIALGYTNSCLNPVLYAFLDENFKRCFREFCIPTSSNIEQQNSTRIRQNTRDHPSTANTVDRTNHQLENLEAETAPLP

[3] = target: Delta-type opioid receptor (Homo sapiens, UniProt P41143); assay: Displacement of [3H]diprenorphine from human cloned delta receptor by cell based assay
Delta-type opioid receptor, sequence (P41143 whole entry): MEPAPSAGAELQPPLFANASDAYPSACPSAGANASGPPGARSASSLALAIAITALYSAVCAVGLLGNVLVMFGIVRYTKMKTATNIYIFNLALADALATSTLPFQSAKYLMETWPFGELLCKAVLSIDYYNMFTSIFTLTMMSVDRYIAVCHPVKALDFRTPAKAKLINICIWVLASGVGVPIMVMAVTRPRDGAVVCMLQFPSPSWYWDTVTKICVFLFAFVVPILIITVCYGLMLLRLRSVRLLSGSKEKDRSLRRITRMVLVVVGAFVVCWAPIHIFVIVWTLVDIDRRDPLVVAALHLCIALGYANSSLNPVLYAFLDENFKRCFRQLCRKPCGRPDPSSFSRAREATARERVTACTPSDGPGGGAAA

Homo sapiens = species: Homo sapiens; assay: Ratio of Ki for human cloned mu opioid receptor to Ki for human cloned kappa opioid receptor
[4] = target: T1, Kappa-type opioid receptor; assay: Antagonist activity at human cloned kappa opioid receptor assessed as inhibition of 50 nM U50488H-stimulated GTPgammaS binding by cell based assay; format: functional
Mu-type opioid receptor [5] = target: T2, Mu-type opioid receptor; assay: Antagonist activity at human cloned mu opioid receptor assessed as inhibition of 100 nM loperamide-stimulated GTPgammaS binding by cell based assay; format: functional
[6] = Antagonist activity at kappa opioid receptor in rabbit vas deferens assessed as reversal of asimadoline-suppressed electrically-stimulated twitch response; format: functional, tissue-based; settings: Oryctolagus cuniculus
[7] = target: Kappa-type opioid receptor (Cavia porcellus, UniProt P41144); assay: Binding affinity to kappa opioid receptor in guinea pig brain membrane; format: cell membranes
Kappa-type opioid receptor (Cavia porcellus, UniProt P41144), sequence (P41144 whole entry): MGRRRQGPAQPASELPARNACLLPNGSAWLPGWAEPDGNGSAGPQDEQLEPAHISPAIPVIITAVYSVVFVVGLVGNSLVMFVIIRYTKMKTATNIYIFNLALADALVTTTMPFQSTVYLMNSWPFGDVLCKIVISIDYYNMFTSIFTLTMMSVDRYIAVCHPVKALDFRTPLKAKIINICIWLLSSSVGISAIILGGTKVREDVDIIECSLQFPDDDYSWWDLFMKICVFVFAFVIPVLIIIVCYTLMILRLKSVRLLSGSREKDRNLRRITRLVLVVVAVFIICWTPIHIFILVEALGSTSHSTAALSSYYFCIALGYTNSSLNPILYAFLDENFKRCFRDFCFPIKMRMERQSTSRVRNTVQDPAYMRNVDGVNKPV

Mu-type opioid receptor [8] = target: Mu-type opioid receptor (Cavia porcellus, UniProt P97266); assay: Binding affinity to mu opioid receptor in guinea pig brain membrane; format: cell membranes
Mu-type opioid receptor (Cavia porcellus, UniProt P97266), sequence (P97266 whole entry): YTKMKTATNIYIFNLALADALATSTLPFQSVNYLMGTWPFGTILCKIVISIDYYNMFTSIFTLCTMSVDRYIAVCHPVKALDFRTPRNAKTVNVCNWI

[9] = Binding affinity to delta opioid receptor in guinea pig brain membrane; format: cell membranes, Cavia porcellus

| SMILES | pKi [1] | pKi (Mu-type opioid receptor [2]) | pKi [3] | Ratio Ki (Homo sapiens) | pIC50 [4] | pIC50 (Mu-type opioid receptor [5]) | pEC50 [6] | pIC50 [7] | pIC50 (Mu-type opioid receptor [8]) | pIC50 [9] |
| --- | --- | --- | --- | --- | --- | --- | --- | --- | --- | --- |
| O=C1N[C@H](Cc2c[nH]c3ccccc23)C(=O)N[C@@H](Cc2ccccc2)C(=O)N2CCC[C@@H]2C(=O)N[C@H]1Cc1ccc(F)cc1 | 7.68 | 7.32 | < 6.00 | 2.3 | – | – | – | – | – | – |
| CC(=O)N[C@@H](Cc1ccccc1)C(=O)N[C@H](Cc1c[nH]c2ccccc12)C(=O)N[C@@H](Cc1ccccc1)C(=O)N1CCC[C@@H]1C(N)=O | < 6.00 | 6.44 | < 6.00 | – | – | – | – | – | – | – |
| CC(=O)n1cc(C[C@H](N)C(=O)N[C@@H](Cc2ccccc2)C(=O)N2CCC[C@@H]2C(=O)N[C@@H](Cc2ccccc2)C(N)=O)c2ccccc21 | < 6.00 | < 6.00 | < 6.00 | – | – | – | – | – | – | – |
| CC(=O)N1CCC[C@@H]1C(=O)N[C@@H](Cc1ccccc1)C(=O)N[C@@H](Cc1c[nH]c2ccccc12)C(=O)N[C@@H](Cc1ccccc1)C(N)=O | < 6.00 | < 6.00 | < 6.00 | – | – | – | – | – | – | – |
| COc1ccc(C[C@@H]2NC(=O)[C@@H](Cc3c[nH]c4ccccc34)NC(=O)[C@H](Cc3ccccc3)NC(=O)[C@H]3CCCN3C2=O)cc1 | 7.18 | 6.77 | < 6.00 | 2.6 | – | – | – | – | – | – |
| O=C1N[C@H](Cc2c[nH]c3ccccc23)C(=O)N[C@@H](Cc2ccc(F)cc2)C(=O)N2CCC[C@@H]2C(=O)N[C@H]1Cc1ccccc1 | 7.55 | 6.68 | < 6.00 | 7.5 | – | – | – | – | – | – |
| C[C@@H]1NC(=O)[C@@H](Cc2c[nH]c3ccccc23)NC(=O)[C@H](Cc2ccccc2)NC(=O)[C@H]2CCCN2C1=O (cyclo(A[dP]F[dW])) | 8.28 | 7.66 | < 6.00 | 4.2 | 8.30 | 7.32 | – | – | – | – |
| O=C1N[C@H](Cc2c[nH]c3ccccc23)C(=O)N[C@@H](Cc2cccc(O)c2)C(=O)N2CCC[C@@H]2C(=O)N[C@H]1Cc1ccccc1 | 7.11 | 7.43 | 6.17 | 0.47 | – | – | – | – | – | – |
| O=C1N[C@H](Cc2c[nH]c3ccccc23)C(=O)N[C@@H](Cc2ccccc2)C(=O)N2CCC[C@@H]2C(=O)N[C@H]1Cc1ccc(O)cc1 | 6.85 | 6.92 | < 6.00 | 0.85 | – | – | – | – | – | – |
| O=C1N[C@H](Cc2c[nH]c3ccccc23)C(=O)N[C@@H](Cc2ccccc2)C(=O)N2CCC[C@@H]2C(=O)N[C@H]1Cc1cccc(O)c1 | 7.70 | 7.40 | 5.47 | 2 | – | – | – | – | – | – |
| O=C1N[C@H](Cc2c[nH]c3ccccc23)C(=O)N[C@@H](Cc2ccc(O)cc2)C(=O)N2CCC[C@@H]2C(=O)N[C@H]1Cc1ccccc1 | 6.66 | – | < 6.00 | – | – | – | – | – | – | – |
| O=C1N[C@H](Cc2c[nH]c3ccccc23)C(=O)NCC(=O)N2CCC[C@@H]2C(=O)N[C@H]1Cc1ccccc1 | 6.57 | 6.11 | < 6.00 | 2.8 | – | – | – | – | – | – |
| CC(=O)N1CCC[C@@H]1C(=O)N[C@@H](Cc1ccccc1)C(=O)N[C@H](Cc1c[nH]c2ccccc12)C(=O)N[C@@H](Cc1ccccc1)C(N)=O | < 6.00 | 6.47 | < 6.00 | – | – | – | – | – | – | – |
| COc1ccc(C[C@@H]2NC(=O)[C@H]3CCCN3C(=O)[C@H](Cc3ccccc3)NC(=O)[C@@H](Cc3c[nH]c4ccccc34)NC2=O)cc1 | 7.85 | 7.37 | < 6.00 | 3.1 | – | – | – | – | – | – |
| CC(=O)N[C@@H](Cc1ccccc1)C(=O)N1CCC[C@@H]1C(=O)N[C@@H](Cc1ccccc1)C(=O)N[C@@H](Cc1c[nH]c2ccccc12)C(N)=O | < 6.00 | < 6.00 | < 6.00 | – | – | – | – | – | – | – |
| CC(=O)N[C@@H](Cc1ccccc1)C(=O)N1CCC[C@@H]1C(=O)N[C@@H](Cc1ccccc1)C(=O)N[C@H](Cc1c[nH]c2ccccc12)C(N)=O | < 6.00 | < 6.00 | < 6.00 | – | – | – | – | – | – | – |
| CC(=O)N[C@@H](Cc1ccccc1)C(=O)N[C@@H](Cc1c[nH]c2ccccc12)C(=O)N[C@@H](Cc1ccccc1)C(=O)N1CCC[C@@H]1C(N)=O | < 6.00 | < 6.00 | < 6.00 | – | – | – | – | – | – | – |
| O=C1N[C@H](Cc2c[nH]c3ccccc23)C(=O)N[C@@H](Cc2ccccc2)C(=O)N2CCC[C@@H]2C(=O)N[C@H]1Cc1ccccc1 (cyclo(F[dP]F[dW])) | 8.42 | 7.52 | < 6.00 | 7.9 | 6.85 | 7.68 | – | – | – | – |
| O=C1N[C@@H](Cc2ccccc2)C(=O)N2CCC[C@@H]2C(=O)N[C@@H](Cc2ccccc2)C(=O)N[C@H]1Cc1c[nH]c2ccccc12 (cyclo(FWF[dP])) | 7.54 | 6.89 | 5.70 | 4.5 | 6.36 | 7.60 | 5.89 | 7.33 | 6.59 | 5.59 |
| C[C@H]1NC(=O)[C@H](Cc2ccccc2)NC(=O)[C@H]2CCCN2C(=O)[C@H](Cc2ccccc2)NC1=O | < 6.00 | < 6.00 | < 6.00 | – | – | – | – | – | – | – |
| CC(=O)N[C@H](Cc1c[nH]c2ccccc12)C(=O)N[C@@H](Cc1ccccc1)C(=O)N1CCC[C@@H]1C(=O)N[C@@H](Cc1ccccc1)C(N)=O | < 6.00 | < 6.00 | < 6.00 | – | – | – | – | – | – | – |
| C[C@@H]1NC(=O)[C@H]2CCCN2C(=O)[C@H](Cc2ccccc2)NC(=O)[C@@H](Cc2c[nH]c3ccccc23)NC1=O (cyclo(A[dW]F[dP])) | 5.89 | 5.66 | < 6.00 | 1.7 | – | – | – | – | – | – |
